Results from ChEMBL document CHEMBL5726287, “Biaryl acetamide compounds and methods of use thereof” (2017).

The compounds below were run against Mast/stem cell growth factor receptor Kit (Homo sapiens, UniProt P10721) (assay: Competition Binding Assay: Competition binding assays used herein were developed, validated and performed as described in Fabian et al., Nature Biotechnology 2005, 23, 329-336. Kinases were produced as fusions to T7 phage (See, Fabian et al. or WO04/015142) or alternatively, the kinases were expressed in HEK-293 cells and subsequently tagged with DNA for PCR detection (See, WO08/005,310). […] The liganded beads were blocked with excess biotin and washed with blocking buffer (SeaBlock (Pierce), 1% BSA, 0.05% Tween 20, 1 mM DTT) to remove unbound ligand and to reduce non-specific binding. […] Test compounds were prepared as 100× stocks in DMSO and diluted into the aqueous environment. Kds were determined using an eleven point threefold serial dilutions. DMSO or control compounds were was added to control assays lacking a test compound.).
Format: cell-based

Chain of Mast/stem cell growth factor receptor Kit (P10721 whole entry, the tested form may be a part): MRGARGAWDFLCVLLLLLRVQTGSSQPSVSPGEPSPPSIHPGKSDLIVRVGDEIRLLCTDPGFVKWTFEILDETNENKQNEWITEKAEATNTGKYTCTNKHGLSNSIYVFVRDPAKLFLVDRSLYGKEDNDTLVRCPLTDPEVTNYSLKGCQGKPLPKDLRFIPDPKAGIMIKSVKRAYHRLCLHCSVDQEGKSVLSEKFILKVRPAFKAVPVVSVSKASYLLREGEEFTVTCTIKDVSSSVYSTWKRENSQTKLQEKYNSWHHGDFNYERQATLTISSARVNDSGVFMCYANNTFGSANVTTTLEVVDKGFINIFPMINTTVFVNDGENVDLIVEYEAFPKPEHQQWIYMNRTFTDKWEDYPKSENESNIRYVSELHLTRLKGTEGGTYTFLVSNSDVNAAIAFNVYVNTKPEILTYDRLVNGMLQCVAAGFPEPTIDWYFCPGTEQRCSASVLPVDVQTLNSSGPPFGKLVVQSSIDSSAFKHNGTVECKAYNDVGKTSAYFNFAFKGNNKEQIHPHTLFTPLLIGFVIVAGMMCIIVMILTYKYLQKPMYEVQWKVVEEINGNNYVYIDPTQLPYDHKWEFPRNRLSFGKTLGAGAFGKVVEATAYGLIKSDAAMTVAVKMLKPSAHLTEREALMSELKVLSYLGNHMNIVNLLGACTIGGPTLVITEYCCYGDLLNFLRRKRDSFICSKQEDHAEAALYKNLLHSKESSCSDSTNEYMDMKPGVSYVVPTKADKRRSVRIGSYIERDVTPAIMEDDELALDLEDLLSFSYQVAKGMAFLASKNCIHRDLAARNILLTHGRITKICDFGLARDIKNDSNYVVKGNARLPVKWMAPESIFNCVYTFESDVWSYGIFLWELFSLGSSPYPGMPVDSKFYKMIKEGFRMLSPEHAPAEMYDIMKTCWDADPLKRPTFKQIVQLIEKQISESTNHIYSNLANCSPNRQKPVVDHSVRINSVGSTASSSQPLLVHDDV

Kd | SMILES
< 5 nM | COc1cc2nc(-c3ccc(CC(=O)Nc4cc(C(C)(C)C(F)(F)F)nn4C)c(F)c3)cnc2cc1OCCN1CCOCC1
< 5 nM | COc1cc2ncc(-c3ccc(CC(=O)Nc4cc(C5(C(F)(F)F)CC5)on4)cc3)nc2cc1OC
< 5 nM | COc1cc2nc(-c3ccc(CC(=O)Nc4cc(C5(C)CC5)no4)c(F)c3)cnc2cc1OCCN1CCOCC1
